Measurements from PMC9226319, “Peripherally restricted transthyretin-based delivery system for probes and therapeutics avoiding opioid-related side effects” (Nature Communications, 2022).
“And” between values parts separate entries of the source, which are not always exact repeats. Equal entries are not always repeated. Where two headings read alike, the source gives them in different places.

Legend:
[1] = target: human mu-opioid receptors (Homo sapiens, UniProt P35372); conditions: cited from earlier work
Sequence of human mu-opioid receptors (P35372 whole entry): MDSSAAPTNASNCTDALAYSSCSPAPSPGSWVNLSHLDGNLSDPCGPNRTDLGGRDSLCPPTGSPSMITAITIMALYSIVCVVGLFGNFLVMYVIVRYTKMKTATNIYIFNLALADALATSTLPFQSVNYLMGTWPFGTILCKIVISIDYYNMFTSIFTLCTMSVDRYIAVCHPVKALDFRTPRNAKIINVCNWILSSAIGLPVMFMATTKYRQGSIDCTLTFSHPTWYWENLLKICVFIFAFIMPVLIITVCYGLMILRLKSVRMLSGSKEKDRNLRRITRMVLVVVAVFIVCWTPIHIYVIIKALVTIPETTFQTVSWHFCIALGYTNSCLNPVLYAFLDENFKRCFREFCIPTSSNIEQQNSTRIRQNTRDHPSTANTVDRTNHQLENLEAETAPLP

male Sprague-Dawley rats = conditions: cited from earlier work
purified human TTR = purified human TTR (Homo sapiens, UniProt P02766); test: Fluorescence polarization (FP) binding assay, ligands to TTR in buffer
holo-RBP-TTR interaction = holo-RBP-TTR interaction (Homo sapiens, UniProt P02766); test: Effect on holo-RBP-TTR interaction in human serum (cross-linking, Western blot); conditions: human serum, quantified from gel image, replicates (Supp Fig.14b)
TTR in human serum = TTR in human serum (Homo sapiens, UniProt P02766); test: TTR serum fluorescent probe exclusion (FPE) selectivity assay; format: binding; conditions: ligand 10 µM; for %FPE probe fluorescence: human serum, replicates

C[N+]1(CC2CC2)CC[C@]23c4c5ccc(O)c4O[C@H]2C(=O)CC[C@@]3(O)[C@H]1C5 (some centres unmarked) [MNTX]
affinity for the mu-opioid receptors as % of naltrexone [1]: 1%
Ki ([1]; read-out: binding affinity to mu-opioid receptor (Ki)): 0.0221 µM

CN(C)C(=O)C(CCN1CCC(O)(c2ccc(Cl)cc2)CC1)(c1ccccc1)c1ccccc1 [Loperamide]
GI transit (male Sprague-Dawley rats; 30 mg/kg): 30%
GI transit (male Sprague-Dawley rats; subcutaneous 1 mg/kg): 50%
ED50 for inducing constipation (male Sprague-Dawley rats; subcutaneous): 1 mg/kg

Cc1n[nH]c(C)c1CCCOc1cc(OCCCCCCN)cc(C(=O)O)c1 [Compound 1]
Kd (purified human TTR; FP assay, Kd from IC50 by Cheng-Prusoff, read-out: binding affinity to TTR in buffer (Kd)): 0.0685 µM
% Fluorescence polarization (mean) (purified human TTR; log [nM] inhibitor 0.990): 100.000%
% Fluorescence polarization (mean) (purified human TTR; log [nM] inhibitor 1.291): 100.180%
% Fluorescence polarization (mean) (purified human TTR; log [nM] inhibitor 1.592): 101.890%
% Fluorescence polarization (mean) (purified human TTR; log [nM] inhibitor 1.893): 93.660%
% Fluorescence polarization (mean) (purified human TTR; log [nM] inhibitor 2.194): 79.820%
% Fluorescence polarization (mean) (purified human TTR; log [nM] inhibitor 2.495): 50.610%
% Fluorescence polarization (mean) (purified human TTR; log [nM] inhibitor 2.796): 29.820%
% Fluorescence polarization (mean) (purified human TTR; log [nM] inhibitor 3.097): 10.200%
% Fluorescence polarization (mean) (purified human TTR; log [nM] inhibitor 3.398): 5.680%
% Fluorescence polarization (mean) (purified human TTR; log [nM] inhibitor 3.699): 2.100%
% Fluorescence polarization (mean) (purified human TTR; log [nM] inhibitor 4.000): 0.000%
% Fluorescence polarization (mean) (purified human TTR; log [nM] inhibitor […]): 0.000%
%holo RBP binding to TTR (holo-RBP-TTR interaction): 8% and 6.2% and 5.8%
% TTR occupancy in human serum (TTR in human serum; FPE probe 3.6 µM, 3 h reading relative to probe alone, text mean ± s.d., table replicates): 80.97% and 81.01% and 82.98% and 80.85%
%FPE probe fluorescence (TTR in human serum; time 0.000 h): 0.000%
%FPE probe fluorescence (TTR in human serum; time 0.083 h): 1.647% and 2.385% and -0.604% and 3.064%
%FPE probe fluorescence (TTR in human serum; time 0.250 h): 1.886% and 5.252% and 4.502% and 2.159%
%FPE probe fluorescence (TTR in human serum; time 0.500 h): 6.344% and 5.631% and 7.192% and 4.320%
%FPE probe fluorescence (TTR in human serum; time 1.000 h): 3.308% and 7.416% and 10.395% and 10.953%
%FPE probe fluorescence (TTR in human serum; time 1.250 h): 4.585% and 8.580% and 11.565% and 11.702%
%FPE probe fluorescence (TTR in human serum; time 1.500 h): 7.132% and 12.681% and 12.080% and 11.106%
%FPE probe fluorescence (TTR in human serum; time 1.750 h): 8.769% and 12.456% and 13.547% and 12.819%
%FPE probe fluorescence (TTR in human serum; time 2.000 h): 10.680% and 14.441% and 12.622% and 13.836%
%FPE probe fluorescence (TTR in human serum; time 2.250 h): 13.720% and 16.433% and 14.485% and 14.975%
%FPE probe fluorescence (TTR in human serum; time 2.500 h): 13.664% and 19.254% and 16.706% and 17.421%
%FPE probe fluorescence (TTR in human serum; time 2.750 h): 17.610% and 18.428% and 15.401% and 17.419%
%FPE probe fluorescence (TTR in human serum; time 3.000 h): 19.032% and 18.994% and 17.022% and 19.151%
%FPE probe fluorescence (TTR in human serum; time 3.500 h): 21.344% and 21.727% and 19.004% and 22.809%
%FPE probe fluorescence (TTR in human serum; time 3.750 h): 22.381% and 21.465% and 19.735% and 21.684%
%FPE probe fluorescence (TTR in human serum; time 4.000 h): 24.245% and 24.044% and 22.333% and 25.118%
%FPE probe fluorescence (TTR in human serum; time 4.250 h): 24.067% and 25.243% and 24.565% and 26.782%
%FPE probe fluorescence (TTR in human serum; time 4.500 h): 26.784% and 27.018% and 26.091% and 25.883%
%FPE probe fluorescence (TTR in human serum; time 4.750 h): 28.232% and 25.575% and 25.168% and 25.868%
%FPE probe fluorescence (TTR in human serum; time 5.000 h): 29.310% and 28.226% and 25.991% and 29.486%
%FPE probe fluorescence (TTR in human serum; time 5.250 h): 29.376% and 30.191% and 26.180% and 29.320%
%FPE probe fluorescence (TTR in human serum; time 5.500 h): 30.897% and 29.807% and 29.795% and 31.357%
%FPE probe fluorescence (TTR in human serum; time 5.750 h): 32.177% and 31.200% and 28.228% and 32.379%
%FPE probe fluorescence (TTR in human serum; time 6.000 h): 33.601% and 32.676% and 30.907% and 33.191%
